Test [1] concerns the target Myosin light chain kinase 2, skeletal/cardiac muscle (Homo sapiens) (UniProt Q9H1R3). Description: Selectivity interaction (Kinase panel (Z-LYTE Assay)) EUB0001632a MYLK2. The note with it: at 10 µM.
Test [2] deals with Ribosomal protein S6 kinase alpha-6 (Homo sapiens, UniProt Q9UK32). Description: Selectivity interaction (Ambit KINOMEscan and KiNATiv profiling in Jurkat cells) EUB0000090b RPS6KA6. The format is cell-based. The note with it: at 1 µM.
In test [3] the target is Cyclin-dependent kinase 5 (Homo sapiens, UniProt Q00535). The test can be described thus: Selectivity interaction (KinomeScan (DiscoverX)) EUB0000607a CDK5. The note with it: at 10 µM.
Test [4] deals with Dual specificity protein kinase CLK3 (Homo sapiens, UniProt P49761). The test can be described thus: Selectivity interaction (KinomeScan (DiscoverX)) EUB0000666a CLK3. The following applies: at 10 µM.
For test [5], the target named is Mitogen-activated protein kinase 4 (Homo sapiens) (UniProt P31152). Description: Selectivity interaction (KinomeScan (DiscoverX)) EUB0000666a MAPK4. The note with it: at 10 µM.
The target of test [6] is Histone-lysine N-methyltransferase, H3 lysine-36 specific (Homo sapiens) (UniProt Q96L73). The following applies: at 10 µM.
Test [7] addresses T1, Serine/threonine-protein kinase D2 (Homo sapiens) (UniProt Q9BZL6).
T1 sequence (whole entry): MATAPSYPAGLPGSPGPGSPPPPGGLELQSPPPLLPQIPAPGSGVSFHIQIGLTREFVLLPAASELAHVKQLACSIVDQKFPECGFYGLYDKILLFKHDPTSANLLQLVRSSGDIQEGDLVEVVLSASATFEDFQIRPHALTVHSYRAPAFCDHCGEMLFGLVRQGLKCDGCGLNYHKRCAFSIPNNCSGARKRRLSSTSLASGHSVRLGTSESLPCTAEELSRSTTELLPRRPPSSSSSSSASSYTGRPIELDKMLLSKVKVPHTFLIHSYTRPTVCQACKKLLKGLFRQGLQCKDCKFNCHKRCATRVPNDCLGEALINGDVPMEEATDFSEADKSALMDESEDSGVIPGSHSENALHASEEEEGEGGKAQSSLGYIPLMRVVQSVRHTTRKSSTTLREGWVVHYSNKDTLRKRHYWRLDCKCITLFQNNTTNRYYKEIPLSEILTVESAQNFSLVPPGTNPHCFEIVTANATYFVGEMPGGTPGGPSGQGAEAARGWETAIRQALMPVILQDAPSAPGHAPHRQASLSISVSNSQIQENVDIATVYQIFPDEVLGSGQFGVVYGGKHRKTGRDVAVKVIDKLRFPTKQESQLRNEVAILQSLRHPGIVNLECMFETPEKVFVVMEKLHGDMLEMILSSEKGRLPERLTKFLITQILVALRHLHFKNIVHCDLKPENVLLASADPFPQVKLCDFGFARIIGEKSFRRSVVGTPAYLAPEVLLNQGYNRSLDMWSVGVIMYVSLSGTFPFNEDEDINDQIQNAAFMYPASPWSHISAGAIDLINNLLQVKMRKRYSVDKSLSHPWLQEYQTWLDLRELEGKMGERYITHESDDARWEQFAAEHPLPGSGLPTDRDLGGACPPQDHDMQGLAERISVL
The test can be described thus: Selectivity interaction (KinomeScan (DiscoverX)) EUB0000655a PRKD2. The following applies: at 10 µM.

In test [8] the target is RAF proto-oncogene serine/threonine-protein kinase (Homo sapiens) (UniProt P04049). Description: Selectivity interaction (KinomeScan (DiscoverX)) EUB0001079a RAF1. The following applies: at 1 µM.
The target of test [9] is T2, Dual specificity tyrosine-phosphorylation-regulated kinase 2 (Homo sapiens) (UniProt Q92630).
T2 sequence (whole entry): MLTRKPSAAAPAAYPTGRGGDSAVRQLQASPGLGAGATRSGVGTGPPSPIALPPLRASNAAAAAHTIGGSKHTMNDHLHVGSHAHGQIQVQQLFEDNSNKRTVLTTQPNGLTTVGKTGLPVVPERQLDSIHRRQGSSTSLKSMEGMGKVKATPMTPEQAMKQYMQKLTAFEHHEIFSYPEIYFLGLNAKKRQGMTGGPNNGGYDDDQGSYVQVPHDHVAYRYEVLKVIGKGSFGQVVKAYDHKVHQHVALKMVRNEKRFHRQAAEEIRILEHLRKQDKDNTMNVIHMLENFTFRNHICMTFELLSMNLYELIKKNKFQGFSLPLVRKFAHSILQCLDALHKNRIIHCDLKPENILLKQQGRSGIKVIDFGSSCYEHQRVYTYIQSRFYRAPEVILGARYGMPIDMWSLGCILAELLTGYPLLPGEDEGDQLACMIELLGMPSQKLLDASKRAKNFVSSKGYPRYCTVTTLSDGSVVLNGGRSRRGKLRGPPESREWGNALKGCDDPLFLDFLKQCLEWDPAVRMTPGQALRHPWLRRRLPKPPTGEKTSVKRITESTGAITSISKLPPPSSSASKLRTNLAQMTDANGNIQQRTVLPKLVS
Description: Selectivity interaction (KinomeScan (DiscoverX)) EUB0001619a DYRK2. The note with it: at 1 µM.

For test [10], the target named is T3, Phosphatidylinositol 3-kinase catalytic subunit type 3 (Homo sapiens, UniProt Q8NEB9). Description: Selectivity interaction (ActivX KiNativ screen (ex vivo kinase selectivity in human PBMCs)) EUB0001619a PIK3C3. The following applies: PBMC, at 1 µM. The format is cell-based.
For test [11], the target named is T3, Phosphatidylinositol 3-kinase catalytic subunit type 3. Description: Selectivity interaction (Kinase panel (Invitrogen)) EUB0000639a PIK3C3. The following applies: at 200 nM.
For test [12], the target named is MAP/microtubule affinity-regulating kinase 3 (Homo sapiens) (UniProt P27448). The test can be described thus: Selectivity interaction (ActivX KiNativ screen (kinase selectivity in THP-1 cell lysates)) EUB0000639a MARK3. The class given is subcellular. The following applies: lysate, at 0.2 µM.
The target of test [13] is T4, Serine/threonine-protein kinase Nek2 (Homo sapiens) (UniProt P51955).
T4 sequence (whole entry): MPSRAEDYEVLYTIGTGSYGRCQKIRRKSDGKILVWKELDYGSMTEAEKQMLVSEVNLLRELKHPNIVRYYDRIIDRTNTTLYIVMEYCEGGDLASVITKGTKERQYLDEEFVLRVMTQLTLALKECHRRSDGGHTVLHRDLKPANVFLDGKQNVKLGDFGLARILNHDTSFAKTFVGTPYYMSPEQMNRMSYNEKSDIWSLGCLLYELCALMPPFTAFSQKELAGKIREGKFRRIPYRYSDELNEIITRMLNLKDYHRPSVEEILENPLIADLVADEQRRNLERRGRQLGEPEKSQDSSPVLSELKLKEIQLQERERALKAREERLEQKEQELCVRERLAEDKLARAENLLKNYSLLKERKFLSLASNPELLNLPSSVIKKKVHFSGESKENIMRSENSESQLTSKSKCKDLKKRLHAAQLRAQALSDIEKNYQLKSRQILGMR
Description: Selectivity interaction (Millipore kinase profiler) EUB0000124b NEK2. The note with it: at 10 µM.

The target in test [14] is STE20/SPS1-related proline-alanine-rich protein kinase (Homo sapiens) (UniProt Q9UEW8). Description: Selectivity interaction (Kinase panel (DSF assay)) EUB0001559a STK39. In general terms: Differential scanning fluorimetry follows unfolding on heating by fluorescence.
For test [15], the target named is Fibroblast growth factor receptor 4 (Homo sapiens, UniProt P22455). The test can be described thus: Selectivity interaction (KinomeScan (DiscoverX)) EUB0000045b FGFR4.

Data on 12 compounds can be found in ChEMBL document CHEMBL5465560, “Selectivity Literature for EUbOPEN Chemogenomic Library” (2024).

T3 sequence (Q8NEB9 whole entry): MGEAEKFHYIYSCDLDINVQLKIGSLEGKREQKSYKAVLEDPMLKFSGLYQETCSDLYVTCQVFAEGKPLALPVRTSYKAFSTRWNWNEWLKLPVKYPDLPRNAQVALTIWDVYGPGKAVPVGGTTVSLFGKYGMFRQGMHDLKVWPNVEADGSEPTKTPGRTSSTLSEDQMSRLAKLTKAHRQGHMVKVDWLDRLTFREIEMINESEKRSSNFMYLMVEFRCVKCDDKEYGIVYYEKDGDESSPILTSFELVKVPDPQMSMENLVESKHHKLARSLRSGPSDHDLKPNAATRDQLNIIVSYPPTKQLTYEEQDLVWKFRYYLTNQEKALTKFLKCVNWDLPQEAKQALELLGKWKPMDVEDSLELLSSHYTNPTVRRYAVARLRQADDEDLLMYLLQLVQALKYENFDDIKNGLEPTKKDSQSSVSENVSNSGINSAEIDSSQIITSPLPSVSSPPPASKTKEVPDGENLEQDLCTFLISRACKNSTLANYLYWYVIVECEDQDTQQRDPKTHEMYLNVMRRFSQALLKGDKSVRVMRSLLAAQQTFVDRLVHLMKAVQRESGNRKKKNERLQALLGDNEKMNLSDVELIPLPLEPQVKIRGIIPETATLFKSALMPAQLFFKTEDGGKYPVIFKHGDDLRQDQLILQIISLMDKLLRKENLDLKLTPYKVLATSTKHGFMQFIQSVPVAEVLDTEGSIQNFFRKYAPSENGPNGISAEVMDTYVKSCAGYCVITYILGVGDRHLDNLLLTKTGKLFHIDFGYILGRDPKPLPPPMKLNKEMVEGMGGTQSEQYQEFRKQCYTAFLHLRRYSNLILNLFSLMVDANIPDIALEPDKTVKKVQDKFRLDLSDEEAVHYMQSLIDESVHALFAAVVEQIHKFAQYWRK
Sequence of Fibroblast growth factor receptor 4 (P22455 22-802 limits assumed): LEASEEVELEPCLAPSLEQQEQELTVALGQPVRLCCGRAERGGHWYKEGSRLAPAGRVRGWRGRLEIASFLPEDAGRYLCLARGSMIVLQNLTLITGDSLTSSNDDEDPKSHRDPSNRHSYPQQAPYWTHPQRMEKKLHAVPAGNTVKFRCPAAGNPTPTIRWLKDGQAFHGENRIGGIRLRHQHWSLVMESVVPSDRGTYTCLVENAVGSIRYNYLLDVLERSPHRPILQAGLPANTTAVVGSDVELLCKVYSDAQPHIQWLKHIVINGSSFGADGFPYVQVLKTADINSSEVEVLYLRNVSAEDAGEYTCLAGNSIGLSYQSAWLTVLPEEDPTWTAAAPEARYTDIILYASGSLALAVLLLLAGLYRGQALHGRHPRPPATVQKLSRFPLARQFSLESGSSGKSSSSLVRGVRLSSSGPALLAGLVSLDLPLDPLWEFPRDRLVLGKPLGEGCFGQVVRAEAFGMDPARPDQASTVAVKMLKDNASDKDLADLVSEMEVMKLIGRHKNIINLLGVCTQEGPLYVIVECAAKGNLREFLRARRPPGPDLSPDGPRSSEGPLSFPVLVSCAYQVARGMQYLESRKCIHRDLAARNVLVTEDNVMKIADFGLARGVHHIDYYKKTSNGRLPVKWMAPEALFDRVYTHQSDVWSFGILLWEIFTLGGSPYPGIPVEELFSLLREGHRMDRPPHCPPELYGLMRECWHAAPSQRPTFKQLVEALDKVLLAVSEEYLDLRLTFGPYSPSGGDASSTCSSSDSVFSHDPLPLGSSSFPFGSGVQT
Sequence of Histone-lysine N-methyltransferase, H3 lysine-36 specific (Homo sapiens) (Q96L73 whole entry): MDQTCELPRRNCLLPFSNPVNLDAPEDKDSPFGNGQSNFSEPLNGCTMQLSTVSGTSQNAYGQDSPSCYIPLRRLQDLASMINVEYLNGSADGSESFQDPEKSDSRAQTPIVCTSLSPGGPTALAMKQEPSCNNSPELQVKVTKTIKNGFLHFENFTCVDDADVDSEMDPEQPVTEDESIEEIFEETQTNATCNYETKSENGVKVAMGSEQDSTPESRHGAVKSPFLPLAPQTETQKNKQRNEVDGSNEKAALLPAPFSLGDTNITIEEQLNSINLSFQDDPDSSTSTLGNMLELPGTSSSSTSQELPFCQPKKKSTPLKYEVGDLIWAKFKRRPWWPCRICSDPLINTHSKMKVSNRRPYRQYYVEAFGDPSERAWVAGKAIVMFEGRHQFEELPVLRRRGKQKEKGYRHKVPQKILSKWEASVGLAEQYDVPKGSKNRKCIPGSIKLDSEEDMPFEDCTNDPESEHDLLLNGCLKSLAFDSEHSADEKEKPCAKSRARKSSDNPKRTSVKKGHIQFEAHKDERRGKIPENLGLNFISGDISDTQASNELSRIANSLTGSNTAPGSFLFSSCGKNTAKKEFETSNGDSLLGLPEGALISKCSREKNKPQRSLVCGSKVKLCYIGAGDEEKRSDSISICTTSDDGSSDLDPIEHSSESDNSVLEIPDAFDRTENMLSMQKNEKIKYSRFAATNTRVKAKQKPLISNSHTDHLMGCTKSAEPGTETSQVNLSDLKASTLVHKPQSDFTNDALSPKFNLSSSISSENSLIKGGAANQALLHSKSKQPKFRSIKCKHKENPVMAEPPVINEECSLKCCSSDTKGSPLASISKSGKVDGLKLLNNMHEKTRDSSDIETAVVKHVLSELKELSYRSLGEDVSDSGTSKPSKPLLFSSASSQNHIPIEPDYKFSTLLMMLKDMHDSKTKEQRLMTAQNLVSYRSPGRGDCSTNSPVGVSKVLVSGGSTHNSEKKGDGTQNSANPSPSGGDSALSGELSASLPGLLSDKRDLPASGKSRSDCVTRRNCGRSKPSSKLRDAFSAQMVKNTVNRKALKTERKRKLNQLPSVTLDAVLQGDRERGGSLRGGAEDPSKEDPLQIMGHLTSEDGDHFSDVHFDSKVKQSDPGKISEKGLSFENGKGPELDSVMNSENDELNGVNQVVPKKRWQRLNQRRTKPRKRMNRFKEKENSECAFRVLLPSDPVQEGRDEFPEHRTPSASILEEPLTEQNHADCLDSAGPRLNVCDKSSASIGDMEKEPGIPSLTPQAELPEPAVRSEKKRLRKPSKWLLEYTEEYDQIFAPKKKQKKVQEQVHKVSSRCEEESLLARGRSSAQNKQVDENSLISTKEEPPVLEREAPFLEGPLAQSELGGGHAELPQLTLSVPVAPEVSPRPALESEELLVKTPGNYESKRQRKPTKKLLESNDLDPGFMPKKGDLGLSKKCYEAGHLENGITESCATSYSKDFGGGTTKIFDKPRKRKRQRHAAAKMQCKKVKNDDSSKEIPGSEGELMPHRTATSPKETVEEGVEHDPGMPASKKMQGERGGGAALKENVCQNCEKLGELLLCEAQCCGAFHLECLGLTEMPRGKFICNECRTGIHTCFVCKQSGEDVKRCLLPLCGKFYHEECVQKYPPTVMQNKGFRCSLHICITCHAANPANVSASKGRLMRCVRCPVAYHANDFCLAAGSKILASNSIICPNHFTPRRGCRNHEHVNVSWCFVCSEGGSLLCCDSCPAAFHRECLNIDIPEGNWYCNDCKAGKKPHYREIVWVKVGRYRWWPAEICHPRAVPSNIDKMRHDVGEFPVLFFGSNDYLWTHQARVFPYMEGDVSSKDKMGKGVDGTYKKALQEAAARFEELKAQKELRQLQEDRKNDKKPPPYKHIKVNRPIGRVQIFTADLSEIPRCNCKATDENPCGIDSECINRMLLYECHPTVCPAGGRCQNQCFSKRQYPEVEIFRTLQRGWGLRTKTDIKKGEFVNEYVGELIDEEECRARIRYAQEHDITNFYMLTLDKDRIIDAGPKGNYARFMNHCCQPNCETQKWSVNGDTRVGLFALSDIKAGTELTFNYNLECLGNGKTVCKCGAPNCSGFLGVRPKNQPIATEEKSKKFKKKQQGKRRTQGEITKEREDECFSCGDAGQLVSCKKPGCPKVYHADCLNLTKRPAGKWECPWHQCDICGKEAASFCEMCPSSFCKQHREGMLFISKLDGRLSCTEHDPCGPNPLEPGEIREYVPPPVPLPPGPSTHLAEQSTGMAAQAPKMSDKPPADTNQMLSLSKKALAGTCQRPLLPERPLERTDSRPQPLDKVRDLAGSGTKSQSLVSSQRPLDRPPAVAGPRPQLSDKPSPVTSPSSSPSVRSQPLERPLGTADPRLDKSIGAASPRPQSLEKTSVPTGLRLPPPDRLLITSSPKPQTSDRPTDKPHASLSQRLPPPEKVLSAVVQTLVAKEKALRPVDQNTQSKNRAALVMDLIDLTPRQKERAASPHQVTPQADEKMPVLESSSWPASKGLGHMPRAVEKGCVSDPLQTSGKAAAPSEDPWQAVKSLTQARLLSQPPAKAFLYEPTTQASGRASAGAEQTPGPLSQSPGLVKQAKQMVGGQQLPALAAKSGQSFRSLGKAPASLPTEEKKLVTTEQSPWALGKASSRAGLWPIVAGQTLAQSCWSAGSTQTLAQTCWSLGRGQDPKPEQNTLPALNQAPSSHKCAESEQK
Sequence of Dual specificity protein kinase CLK3 (P49761 whole entry, looked up): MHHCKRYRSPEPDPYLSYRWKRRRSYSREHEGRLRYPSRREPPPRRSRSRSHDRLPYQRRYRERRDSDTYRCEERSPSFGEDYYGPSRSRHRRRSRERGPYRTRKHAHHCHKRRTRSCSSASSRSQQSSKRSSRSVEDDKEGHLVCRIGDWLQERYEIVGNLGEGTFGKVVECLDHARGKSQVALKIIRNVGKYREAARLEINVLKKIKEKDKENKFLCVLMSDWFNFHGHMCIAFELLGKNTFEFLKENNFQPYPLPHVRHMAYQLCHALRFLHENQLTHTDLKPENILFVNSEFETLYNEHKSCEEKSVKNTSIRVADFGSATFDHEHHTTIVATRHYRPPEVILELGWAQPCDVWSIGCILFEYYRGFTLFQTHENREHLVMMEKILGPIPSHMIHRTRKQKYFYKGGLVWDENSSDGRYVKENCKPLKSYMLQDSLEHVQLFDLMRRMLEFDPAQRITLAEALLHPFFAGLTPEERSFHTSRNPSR

Regarding `Cn1cc(-n2cnc3c(NCc4nc5cc(Cl)c(Cl)cc5[nH]4)nc(N4CCOCC4)nc32)cn1`, the % of control in test [1] worked out at 3.79%. Turning to `CN(C)C/C=C/C(=O)Nc1ccc(C(=O)N2CCCC(Nc3ncc(Cl)c(-c4c[nH]c5ccccc45)n3)C2)cc1` (stereo unspecified), the % of control in test [2] worked out at 92%. With `CNC(=O)Nc1ccc(-c2nc(N3CC4CCC(C3)O4)c3cnn(C4CCC5(CC4)OCCO5)c3n2)cc1`, the % of control in [3] amounted to 88%.

Regarding `O=C(NOC[C@H](O)CO)c1ccc(F)c(F)c1Nc1ccc(I)cc1F`, the % of control turned out to be 100% in test [4] and 77% in [5]. Take `CNCCN1CCC(c2cc(CN(C)C(=O)c3cccc(Oc4ccccc4)c3)ccn2)CC1`: in [6], the % activity was above 90%. The compound `CN(C)CCOc1ccc(-c2nc(-c3ccncc3)c(-c3ccc4c(c3)CC/C4=N\O)[nH]2)cc1` registered a % of control in test [7] of 80%. The compound `Nc1cnc(N2CCc3cc(S(=O)(=O)Nc4c(F)cc(Cl)cc4F)cc(N4CCCC4=O)c32)nc1` [TP-020n] gave a % of control in test [8] of 79%. For `N#Cc1cccc(-c2c[nH]c3ncnc(N4CCOCC4)c23)c1`, the % of control in test [9] came to 92%. The % of inhibition in [10] is -17%. As for `CC[C@@H]1[C@H](F)C(=O)N[C@@H]1COc1nccc2cc(C(N)=O)c(OC)cc12` [ZIMLOVISERTIB], the % of inhibition in test [11] was -5.2%; in test [12] it was 19.8%. Compound `CC(=O)Nc1cccc(-n2c(=O)n(C3CC3)c(=O)c3c(Nc4ccc(I)cc4F)n(C)c(=O)c(C)c32)c1` returned a % of control in test [13] of 119%. As for `CN(C(=O)c1cnn2cccnc12)c1cc2c(cc1N1CCOCC1)C(=O)N(C[C@@H](F)C(C)(C)O)C2`, the dTM in test [14] came to 0.8 K.

For the compound `C=CC(=O)Nc1cc(-n2c(=O)ccc3cnc4ccc(-c5ccc(NS(C)(=O)=O)cc5)cc4c32)ccc1C`, the % of control in test [15] (at 1 µM) is 100%; in [15] (at 10 µM), 84%.
